The values that follow come from publication PMC12322260, “Anticancer activity of triterpene glycosides from the sea star Solaster pacificus” (Scientific Reports, 2025).

Each structure is given as a SMILES string. Where “and” joins values, the source holds several entries; their conditions need not be identical. Equal entries are not always repeated.

In data set [1] the test system is 22Rv1 cells. The experiment in a line: MTT cytotoxicity assay. It is filed as cell-based, human. Conditions: Homo sapiens; 22Rv1, 48 h, mean ± SD. From the text: (§1) The cell lines were purchased from ATCC (Manassas, VA, USA) or ECACC (Salisbury, UK). The following cell lines were used: Human prostate cancer cells LNCaP (ATCC; RRID:CVCL_0395), VCaP (ECACC; RRID:CVCL_2235), 22Rv1 (ATCC; RRID:CVCL_1045), PC3 (ATCC; RRID:CVCL_0035), and DU145 (ATCC; RRID:CVCL_0105); human prostate non-cancer cells PNT2 (ATCC; RRID:CVCL_2164) and RWPE-01 (ATCC; RRID:CVCL_3791). Human non-cancer embryonic kidney cells HEK293T (ECACC; RRID:CVCL_0063) and human fibroblast cells MRC-9 (ECACC; RRID:CVCL_2629). The docetaxel-resistant cells PC3-DR were generated by long-term treatment of human prostate cancer PC3 cells with sublethal concentrations of docetaxel as previously described[32] and were provided by Prof. Z. Culig (Innsbruck Medical University, Austria). All cell lines were recently authenticated by a commercial service (Multiplexion GmbH, Heidelberg, Germany) and were cultured as previously described[58],[59]. Cells were kept in culture for a maximum of three months and were routinely examined for bacterial, fungal, and mycoplasma infections.
For orientation: Tetrazolium assays rely on reduction of a dye to a coloured formazan, in cell work by metabolically active cells.

Data set [2] relates to DU145 cells. The data set is described as follows: MTT cytotoxicity assay. It is filed as cell-based, human. Conditions: Homo sapiens, DU-145; DU145, 48 h, mean ± SD.
From the text: as §1

Data set [3] deals with HEK293T cells. The data set is described as follows: MTT cytotoxicity assay. Conditions: Homo sapiens, HEK-293T, 48 h, mean ± SD. It is filed as cell-based, human.
From the text: as §1

Data set [4] concerns LNCaP cells. The data set is described as follows: MTT cytotoxicity assay. Conditions: Homo sapiens, 48 h, mean ± SD. The format is cell-based, human.
From the text: as §1

Data set [5] has as its system MRC-9 cells. The data set is described as follows: MTT cytotoxicity assay. It is filed as cell-based, human. Conditions: Homo sapiens, MRC9; MRC-9, 48 h, mean ± SD.
From the text: as §1

Data set [6] has as its system PC3 cells. The experiment in a line: MTT cytotoxicity assay. It is filed as cell-based, human. Conditions: Homo sapiens, PC-3; PC3, 48 h, mean ± SD.
From the text: as §1

Data set [7] relates to PC3-DR cells. The experiment in a line: MTT cytotoxicity assay. It is filed as cell-based, human. Conditions: Homo sapiens, 48 h, mean ± SD.
From the text: as §1

Data set [8] deals with PNT2 cells. The data set is described as follows: MTT cytotoxicity assay. Conditions: Homo sapiens; PNT2, 48 h, mean ± SD. The format is cell-based, human.
From the text: as §1

In data set [9] the test system is RWPE-1 cells. The data set is described as follows: MTT cytotoxicity assay. It is filed as cell-based, human. Conditions: Homo sapiens; RWPE-1, 48 h, mean ± SD.
From the text: as §1

Data set [10] has as its system VCaP cells. The data set is described as follows: MTT cytotoxicity assay. It is filed as cell-based, human. Conditions: Homo sapiens, 48 h, mean ± SD.
From the text: as §1

Data set [11] addresses P-glycoprotein (P-gp) in PC3-DR cells (Homo sapiens, UniProt P08183). The data set is described as follows: P-gp activity, calcein-AM assay. Conditions: 30 min. From the text:
A major contributor to docetaxel resistance is P-glycoprotein (also known as P-gp, MDR1), known to be overexpressed in PC3-DR cells. P-glycoprotein is a molecular efflux pump that actively expels various xenobiotic agents, including docetaxel, from cancer cells. Increased P-gp expression correlates with an increased IC50 for docetaxel, signifying enhanced drug resistance. […] In this assay, the non-fluorescent calcein-AM passively diffuses into cells, where it is hydrolyzed by cellular esterases into fluorescent calcein. Both calcein and its precursor are P-gp substrates and are actively transported out of P-gp-highly expressing cells (e.g. PC3-DR cells), which results in reduced intracellular fluorescence. P-gp inhibitors, such as tariquidar, block P-gp function, leading to calcein accumulation and an increase in fluorescence, which therefore can be used as a reliable indicator of reduced P-gp activity. A similar fluorescence increase is observed in the presence of docetaxel due to its competitive binding to the P-gp transporter alongside calcein[38].
Number of biological replicates n = 3. […] Number of biological replicates n = 3.
The evaluation of the activity of P-glycoprotein (P-gp) was performed using calcein-AM assay as described previously. […] The plates were incubated for 15 min, and the green calcein fluorescence was recorded using an Infinite F200PRO plate reader (TECAN). […]

Data set [12] relates to 22Rv1 cells. The data set is described as follows: Drug combination MTT assay, SynergyFinder ZIP analysis. The format is cell-based, human. Conditions: 22Rv1, 48 h. The protocol: (§2) Fig. 5 Effects of CuC1 in combination with taxanes and platinum agents. PC3-DR and 22Rv1 cells were co-treated with cisplatin (Cis), carboplatin (Carbo), docetaxel (Doce), or cabazitaxel (Caba) in combination with CuC1 at the indicated concentrations for 48 h. Cellular viability was evaluated using the MTT assay (number of biological replicates n = 3.) and is represented in the Supplementary Table S2. The cytotoxic effects were further analyzed, and 3D heat maps were constructed using SynergyFinder 3.0 software. The drug effects in combination (synergistic, additive, or antagonistic) were analyzed and visualized using the ZIP algorithm and are indicated by δ-score. δ > 10: Synergistic interactions (dark red area); […]: additive effect; δ < − 10: Antagonistic interactions (dark green area). A ZIP synergy score represents a mean δ overall the concentration range used.
(§3) The effect of combinational treatment with established chemotherapies was evaluated as previously reported^54. In brief, cells were exposed to individual drugs of their combinations for 48 h, and the viability was measured by MTT assay and was then analyzed using SynergyFinder 3.0 software (https://synergyfinder.fimm.fi) and the ZIP score algorithm. Statistical analysis was conducted automatically by the software using its inbuilt algorythms based on the input data type and size.

The test system of data set [13] is PC3-DR cells. The data set is described as above. The format is cell-based, human. Conditions: 48 h. The protocol: as §2, §3
Data set [14] deals with PC3-DR cells. Conditions: TQD 50 nM.
Protocol: Viability was evaluated using MTT assay, and IC50s were calculated using GraphPad Prism software. Number of biological replicates n = 3. […] Cells (6 × 10^3 cells/well in 100 μL/well of media) were plated in 96-well plates. The plates were incubated overnight, and the medium was replaced with fresh medium containing drugs at the indicated concentrations. The plates were further incubated for 48 h, unless otherwise stated, the solution of MTT reagent in PBS was added to each well, and cells were incubated for another 2–4 h to form formazan crystals. Then the media was removed and the plates were dried overnight. 50 μL of DMSO was added to each well to dissolve the formazan crystals. The absorbance of each well was measured using an Infinite F200PRO reader (TECAN, Männedorf, Switzerland). The cell viability was estimated as an inhibition concentration (IC50), which was calculated using GraphPad Prism software v.9.1.1 (GraphPad Software, San Diego, CA, USA). IC₅₀ values were determined by fitting the data to a nonlinear regression model (log[inhibitor] versus normalized response—variable slope).
For data set [15], the system named is HT-29, RPMI-7951, and MDA-MB-231 cells. More on the design: method as in PMID 33799442. Conditions: nontoxic concentrations; cited from earlier work.

Sequence of P-glycoprotein (P-gp) in PC3-DR cells (P08183 whole entry): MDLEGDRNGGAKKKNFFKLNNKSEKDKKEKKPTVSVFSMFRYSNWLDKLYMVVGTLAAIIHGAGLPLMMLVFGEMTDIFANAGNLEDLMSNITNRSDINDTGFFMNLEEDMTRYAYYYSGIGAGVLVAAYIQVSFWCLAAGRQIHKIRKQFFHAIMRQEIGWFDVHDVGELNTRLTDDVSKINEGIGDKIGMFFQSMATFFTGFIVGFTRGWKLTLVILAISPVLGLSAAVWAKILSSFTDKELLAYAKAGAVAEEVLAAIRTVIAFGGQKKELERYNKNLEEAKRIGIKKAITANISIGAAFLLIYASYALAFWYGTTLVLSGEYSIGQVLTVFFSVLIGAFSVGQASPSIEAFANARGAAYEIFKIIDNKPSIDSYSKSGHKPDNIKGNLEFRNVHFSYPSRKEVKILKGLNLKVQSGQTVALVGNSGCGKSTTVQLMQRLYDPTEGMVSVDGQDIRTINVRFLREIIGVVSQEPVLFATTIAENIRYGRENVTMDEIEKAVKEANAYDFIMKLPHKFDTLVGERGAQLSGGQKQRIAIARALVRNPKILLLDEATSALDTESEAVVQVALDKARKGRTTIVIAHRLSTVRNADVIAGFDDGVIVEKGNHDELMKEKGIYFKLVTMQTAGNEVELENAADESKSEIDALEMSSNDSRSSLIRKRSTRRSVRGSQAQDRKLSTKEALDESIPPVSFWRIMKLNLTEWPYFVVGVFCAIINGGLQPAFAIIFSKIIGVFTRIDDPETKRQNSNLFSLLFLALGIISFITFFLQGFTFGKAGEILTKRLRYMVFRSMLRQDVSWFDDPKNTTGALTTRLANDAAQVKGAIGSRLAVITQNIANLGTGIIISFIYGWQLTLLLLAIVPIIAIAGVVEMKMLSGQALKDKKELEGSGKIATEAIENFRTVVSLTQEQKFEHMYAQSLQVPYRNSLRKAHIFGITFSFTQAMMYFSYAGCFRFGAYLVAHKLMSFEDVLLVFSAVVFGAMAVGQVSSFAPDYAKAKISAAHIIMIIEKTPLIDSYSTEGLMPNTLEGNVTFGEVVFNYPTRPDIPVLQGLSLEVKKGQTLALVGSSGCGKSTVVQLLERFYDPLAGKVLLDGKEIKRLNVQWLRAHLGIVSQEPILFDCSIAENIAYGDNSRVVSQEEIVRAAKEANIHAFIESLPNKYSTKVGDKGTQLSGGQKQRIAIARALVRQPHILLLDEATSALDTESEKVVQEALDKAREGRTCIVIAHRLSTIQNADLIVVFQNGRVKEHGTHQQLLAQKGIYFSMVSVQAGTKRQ

On to `CO[C@@H]1[C@@H](O)[C@H](O[C@@H]2[C@@H](O)[C@H](O[C@H]3[C@H](O)[C@@H](O[C@@H]4OC[C@@H](O)[C@H](O)[C@H]4O)[C@H](O[C@H]4[C@H](O[C@H]5CC[C@]6(C)[C@@H]7CCC89C(=O)O[C@@](C)(/C=C\C=C(C)C)[C@H]8[C@@H](OC(C)=O)C[C@@]9(C)C7=CC[C@H]6C5(C)C)OC[C@@H](O)[C@@H]4O)O[C@@H]3C)O[C@H](CO)[C@H]2O)OC[C@H]1O` (some centres unmarked) [CuC1, cucumarioside C1], for which the IC50 (as a rule, the concentration that inhibits the measured activity by half) in data set [1] turned out to be 246 ± 17 nM; in [2], 3240 ± 340 nM; in data set [3], 660 ± 50 nM; in [4] it was 3000 ± 540 nM; in data set [5] it was 959 ± 248 nM; in [6], 1590 ± 120 nM. Besides, the 50% inhibitory concentration (IC50) in data set [7] came to 5690 ± 780 nM; in data set [8], 754 ± 58 nM; in [9] it was 554 ± 105 nM; in data set [10] it was 472 ± 65 nM. Moreover, the “P-gp activity (calcein-AM efflux)” value in data set [11] (glycosides at non-cytotoxic concentrations, controls TQD 50 nM, Doce 100 nM) is given as “did not result in any significant changes in calcein-AM efflux”. Besides, the intracellular calcein fluorescence entry in data set [11] (high cytotoxic concentrations) is recorded as “increase of intracellular fluorescence”. The “Response (% of effect)” value is 31.1% and 43.16% and 29.95% and 34.58% and 29.34% and 26.82% and 33.12% and 30.57% in data set [12] (CuC1 0.25 μM alone); 81.71% and 82.23% and 73.42% and 77.37% and 76.17% and 72.77% and 72.16% and 76.9194% in data set [12] (CuC1 0.5 μM alone); 95.8597% and 95.08% and 89.09% and 94.3% and 94.37% and 95.8% and 97.07% and 93.71% in data set [12] (CuC1 1 μM alone); 33.69% and 25.1% and 26.58% and 38.2% and 34.475% and 30.33% and 41.47% and 24.44% in [13] (CuC1 1 μM alone); 61.45% and 55.31% and 54.31% and 72.9% and 63.58% and 68.91% and 61.135% and 65.14% in [13] (CuC1 2 μM alone); 90.21% and 89.15% and 83.68% and 93.87% and 94.47% and 92.06% and 92.89% and 96.86% in [13] (CuC1 4 μM alone). Further, the “effect of co-treatment with tariquidar on cytotoxicity” value in [14] is reported as “did not alter cytotoxicity”. Further, the colony formation result in data set [15] is “strongly suppressed the colony formation”.
